Patent US9302003B2, “Compositions comprising a radiosensitizer and an anti-cancer agent and methods of uses thereof” (priority 2009, dated 2016)

Tested on: F98 glioma
Experiment: Surviving assay in Fischer rats implanted with F98 glioma, intra carotid drug delivery with or without Gamma Knife irradiation
Type: in vivo
Settings: F98 glioma-bearing Fischer rats, 1 ml/rat intra-carotid 10 days after implantation; LipoGold with 15 Gy Gamma Knife 8 h later; FIG. 6

Row | Compound | life span / surviving time
1 | O=C1[O][Pt]2([NH][C@@H]3CCCC[C@H]3[NH]2)[O]C1=O [oxaliplatin] | short life span, similar to sham animals
2 | N.N.[Cl][Pt][Cl] [cisplatin, cis-diammineplatinum(II) dichloride] | died before sham animals
